Reference: patent publication US20070191349A1, “C8, c8' linked 5-oxo-1,2,3,11a-tetrahydro-5h-pyrrolo[2,1-c][1,4] benzodiazepine dimers with 1h-pyrrole-dicarboxylic acid amide linkers and oligomeric analogs therof as well as related compounds for the treatment of proliferative diseases” (SPIROGEN LIMITED, priority 2004, published 2007)
Like-named read-outs stand apart in the source and are kept apart here.

Experiments:
[1] = tested on: linear pBR322 DNA; experiment: DNA cross-linking, electrophoretic assay (Hartley et al.); type: biochemical; conditions: 2 h at 37° C., pH 7.2
Protocol: The extent of DNA cross-linking induced by each PBD dimer was determined using the electrophoretic assay method of Hartley, et al. (Hartley, J. A., Berardini, M. D., and Souhami, R. L. (1991) Anal. Biochem. 193, 131-134) based on the principle that, following complete denaturation of linear pBR322 DNA (˜4,300 bp) to the single-stranded (SS) form, an interstrand cross-link results in renaturation to double-stranded (DS) in a neutral gel.
Closed-circular DNA was linearized with HindIII, then dephosphorylated and finally 5′-singly end-labelled using [γ^32P]-ATP and polynucleotide kinase. Reactions containing 30-40 ng of DNA and the test compound were carried out in aqueous TEOA (25 mM triethanolamine, 1 mM EDTA, pH 7.2) buffer at 37° C. in a final volume of 50 μl for 2 h. Reactions were terminated by addition of an equal volume of stop solution (0.6 M NaOAc, 20 mM EDTA, 100 μg/ml tRNA) followed by precipitation with ethanol. Following centrifugation, the supernatant was discarded and the pellet dried by lyophilization. […] Control non-denatured samples were re-suspended in 10 μl of non-denaturing buffer solution (0.6% sucrose, 0.04% bromophenol blue in aqueous TAE buffer [40 mM Tris, 20 mM acetic acid, 2 mM EDTA, pH 8.1]) and loaded directly onto the gel for comparison.
Electrophoresis was carried out for 14-16 h at 40 V using a 0.8% submerged agarose gel (20×25×0.5 cm) in TAE buffer. Gels were dried under vacuum for 2 h at 80° C. onto one layer each of Whatman 3MM and DE8I filter papers using a BioRad 583 gel dryer. Autoradiographs were obtained after exposure of Hyperfilm-MP film (Amersham plc, U.K.) to the dried gel for either 4 h with a screen (or over night, without a screen, to obtain a sharper image). Film bands were quantitated using a BioRad GS-670 imaging laser densitometer. Percentage cross-linking was calculated by measuring the total DNA in each lane (summed density for the double-stranded [DS] and single-stranded [SS] bands) relative to the amount of cross-linked DNA (density of DS band alone). A dose-response curve was derived by plotting drug concentration against the determined percentage level of cross-linked DNA which was then analysed to determine the concentration of test compound that results in 50% cross-linked plasmid DNA (XL50).

[2] = tested on: K562 human chronic myeloid leukaemia cells; experiment: In vitro cytotoxicity, K562 cells, MTT assay; type: cell-based; conditions: 1 h drug exposure, MTT after 4 days
Protocol: K562 human chronic myeloid leukaemia cells were maintained in RPM1 1640 medium supplemented with 10% fetal calf serum and 2 mM glutamine at 37° C. in a humidified atmosphere containing 5% CO2 and were incubated with a specified dose of drug for 1 h at 37° C. in the dark. The incubation was terminated by centrifugation (5 min, 300 g) and the cells were washed once with drug-free medium. Following the appropriate drug treatment, the cells were transferred to 96-well microtiter plates (10^4 cells per well, 8 wells per sample). Plates were then kept in the dark at 37° C. in a humidified atmosphere containing 5% CO2. The assay is based on the ability of viable cells to reduce a yellow soluble tetrazolium salt, 3-(4,5-dimethylthiazol-2-yl)-2,5-diphenyl-2H-tetrazolium bromide (MTT, Aldrich-Sigma), to an insoluble purple formazan precipitate. Following incubation of the plates for 4 days (to allow control cells to increase in number by approximately 10 fold), 20 μL of MTT solution (5 mg/mL in phosphate-buffered saline) was added to each well and the plates further incubated for 5 h. The plates were then centrifuged for 5 min at 300 g and the bulk of the medium pipetted from the cell pellet leaving 10-20 μL per well. DMSO (200 μL) was added to each well and the samples agitated to ensure complete mixing. The optical density was then read at a wavelength of 550 nm on a Titertek Multiscan ELISA plate reader, and a dose-response curve was constructed. For each curve, an IC50 value was read as the dose required to reduce the final optical density to 50% of the control value.

[3] = tested on: approximately 60 human tumour cell lines; experiment: NCI60 cell screen, in vitro cytotoxicity, SRB assay; type: cell-based; conditions: NCI 60 human tumour cell lines, 48 h continuous exposure
Protocol: The National Cancer Institute (NCI), Bethesda, Md., USA has available an in vitro cytotoxicity screen which consists of approximately 60 human tumour cell lines against which compounds are tested at a minimum of five concentrations each differing 10-fold. A 48 h continuous exposure protocol is used, where cell viability or growth is estimated with an SRB protein assay.
The test compounds were evaluated against approximately 60 human tumour cell lines. The NCI screening procedures were described in detail by Monks and co-workers (Monks, A et al., Journal of the National Cancer Institute, 1991, 83, 757). Briefly, cell suspensions were diluted according to the particular cell type and the expected target cell density (5000-40,000 cells per well based on cell growth characteristics), and added by pipette (100 μL) into 96-well microtitre plates. The cells were allowed a preincubation period of 24 h at 37° C. for stabilisation. Dilutions at twice the intended test concentration were added at time zero in 100 μL aliquots to the wells. The test compounds were evaluated at five 10-fold dilutions (10^−4, 10^−5, 10^−6, 10^−7 and 10^−[…]). The test compounds were incubated for 48 h in 5% CO2 atmosphere and 100% humidity. The cells were then assayed using the sulphorhodamine B assay. A plate reader was used to read the optical densities and a microcomputer processed the readings into GI50 values (in Moles), which is the dosage required to limit cell growth to 50%.

[4] = Alkali, read-out: XL50 (concentration that results in 50% cross-linked plasmid DNA), Alkali
[5] = Heat, read-out: XL50 (concentration that results in 50% cross-linked plasmid DNA), Heat

Structure (SMILES) | EC50 [1, 4] [nM] | IC50 [2] [nM] | GI50 [3] [nM] | EC50 [1, 5] [nM]
COc1cc2c(cc1NC(=O)c1ccc(C(=O)Nc3cc4c(cc3OC)C(=O)N3CCC[C@H]3C=N4)n1C)N=C[C@@H]1CCCN1C2=O [(1) SJG-605, 1-Methyl-1H-pyrrole-2,5-dicarboxylic acid bis-[(11aS)(7-methoxy-5-oxo-1,2,3,11a-tetrahydro-5H-pyrrolo[2,1-c][1,4]benzodiazepin-8-yl)-amide]] | 1300 | 1200 | 1000 | –
COc1cc2c(cc1NC(=O)c1cc(C(=O)Nc3cc4c(cc3OC)C(=O)N3CCC[C@H]3C=N4)n(C)c1)N=C[C@@H]1CCCN1C2=O [(2) SJG-604, 1-Methyl-1H-pyrrole-2,4-dicarboxylic acid bis-[(11aS)(7-methoxy-5-oxo-1,2,3,11a-tetrahydro-5H-pyrrolo[2,1-c][1,4]benzodiazepin-8-yl)-amide]] | 3500 | 23000 | 31600 | –
COc1cc2c(cc1OCCCNC(=O)c1ccc(C(=O)NCCCOc3cc4c(cc3OC)C(=O)N3CCC[C@H]3C=N4)n1C)N=C[C@@H]1CCCN1C2=O [(13) AT-217] | 350 | – | 19000 | 3800
COc1cc2c(cc1OCCCC(=O)Nc1cc(C(=O)NCCCNC(=O)c3cc(NC(=O)CCCOc4cc5c(cc4OC)C(=O)N4CCC[C@H]4C=N5)cn3C)n(C)c1)N=C[C@@H]1CCCN1C2=O [(15) AT-281] | – | 340 | 10 | –
COc1cc2c(cc1OCCCNC(=O)c1cc(NC(=O)c3cc(NC(=O)c4cc(NC(=O)CCCOc5cc6c(cc5OC)C(=O)N5CCC[C@H]5C=N6)cn4C)cn3C)cn1C)N=C[C@@H]1CCCN1C2=O [(18) AT-235] | < 100 | 1510 | 10 | 230
